PubChem BioAssay AID977628 (Broad Institute, 2014)
Records with an inconclusive call do not appear. Active and inactive are the calls of the source.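 How the source made its calls: active means compound lowering the normal-ribosome reporter at least twice as much as the humanized-ribosome reporter, growth loss under a set limit; inconclusive means no clear call, values can overlap the other calls; inactive means the rest.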

How the values were obtained:
Assay in all cases: E. coli growth inhibition, wild-type GFP versus h24 humanized RFP strain, dose response, h24 mutant RFP vs wild-type GFP, cherry-pick (AID 977628);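 further: wild-type GFP and h24 humanized RFP strains co-cultured 1 to 1 per well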
[1] = tested on: E. coli h24 humanized mutant RFP strain growth, fluorescence, 24 h
[2] = tested on: E. coli WT GFP strain growth, fluorescence, 24 h
[3] = tested on: E. coli mixed WT/h24 culture total growth, OD600, 24 h

Row | SMILES | AC50 [1] | AC50 [2] | AC50 [3]
1 | CN(c1ccccc1)S(=O)(=O)c1cccc(NC(=O)CCN2C(=O)C3CCCCC3C2=O)c1 (configuration not stated) | 9.42 µM | > 100 µM (inactive) | 
2 | O=C(Nc1cccc2ccccc12)c1ccc([N+](=O)[O-])o1 | > 100 µM | > 100 µM (inactive) | 
3 | O=S(=O)(NCc1ccc2c(c1)OCO2)c1ccc2c(c1)oc1ccccc12 | > 100 µM | > 100 µM (inactive) | 
4 | CCCCCc1nnc(NC(=O)C2COc3ccccc3O2)s1 (configuration not stated) | > 100 µM |  | > 100 µM
5 | Cc1cccc(CSCC(=O)N2CCN(S(=O)(=O)c3ccccc3C#N)CC2)c1 | > 100 µM | > 100 µM (inactive) | 
6 | COC(=O)c1ccsc1NC(=O)c1cccc(OC)c1 | > 100 µM |  | > 100 µM
7 | Cc1cc(C(=O)c2ccc3ccccc3c2)c(C)o1 | > 100 µM | > 100 µM (inactive) | 
8 | Clc1ccc2nc(CN3CCCc4ccccc43)cn2c1 | > 100 µM | > 100 µM (inactive) | 
9 | COc1cc(NC(=O)COC(=O)CC(C)(C)C)c(C)cc1[N+](=O)[O-] | > 100 µM | > 100 µM (inactive) | > 100 µM
10 | Cc1ccccc1-n1ncc2c(SCC(=O)N3c4ccccc4CC3C)ncnc21 (configuration not stated) | > 100 µM | > 100 µM (inactive) | 
11 | O=C(NCCc1ccccc1)c1ccc2c(c1)S(=O)(=O)c1ccccc1C2=O | > 100 µM | > 100 µM (inactive) | 
12 | O=C(O)c1cccnc1SCc1ccccc1Cl | > 100 µM | > 100 µM (inactive) | 
13 | O=S1(=O)c2ccc(Br)cc2OCCC2CCCCN21 (configuration not stated) | > 100 µM | > 100 µM (inactive) | > 100 µM
14 | COc1ccc(NC(=O)c2cccnc2SC)cc1S(=O)(=O)N1CCCCC1 | > 100 µM | > 100 µM (inactive) | > 100 µM
15 | O=C1C(c2ccccc2)c2ccccc2N1Cc1ccccc1 (configuration not stated) | > 100 µM | > 100 µM (inactive) | 
16 | CCOc1ccc(S(=O)(=O)N(C)c2ccc(OCC(=O)Nc3ccc4[nH]c(=O)[nH]c4c3)cc2)cc1 | > 100 µM | > 100 µM (inactive) | 
17 | CC(=O)NS(=O)(=O)c1ccc(NC(=O)COc2ccc(C(=O)c3ccccc3)cc2)cc1 | > 100 µM | > 100 µM (inactive) | 
18 | c1ccc(-c2nc(-c3cccnc3)cs2)cc1 | > 100 µM | > 100 µM (inactive) | > 100 µM
19 | CCc1cc(C(=O)c2ccc(OC)cc2)c(NC(=O)CCC(=O)O)s1 | 49 µM | > 100 µM (inactive) | 50.9 µM
20 | CCc1ccn2cc(-c3ccc4c(c3)OCO4)nc2c1 | > 100 µM | > 100 µM (inactive) | > 100 µM
21 | O=C(O)CCSc1nc2ccccc2n1-c1ccccc1 | 29.2 µM | > 100 µM (inactive) | 36.4 µM
22 | Nc1[nH]c(C(=O)c2ccccc2)c(-c2ccc3c(c2)OCO3)c1C(=O)NCCc1c[nH]c2ccccc12 | > 100 µM | > 100 µM (inactive) | > 100 µM

Row | SMILES | AC50 [1] | AC50 [2] | AC50 [3]
23 | CCn1cc(Br)c(C(=O)Nc2ccc(C(=O)OC(C)C)cc2)n1 | 2.96 µM | > 100 µM (inactive) | 19.9 µM
24 | Cc1ccccc1-c1nc(CS(=O)(=O)CC(=O)N2CCCCC2)c(C)o1 | > 100 µM |  | > 100 µM
25 | COCc1ccc(C(=O)N2CCCC(C(=O)c3ccc(Cl)cc3C)C2)o1 (configuration not stated) | > 100 µM |  | > 100 µM
26 | O=C1c2cccc(OCC(=O)N3CCCc4ccccc43)c2CCN1Cc1cccnc1 | 9.06 µM | > 100 µM (inactive) | 45.8 µM
27 | COc1ccccc1-c1nnc(C2CCN(S(=O)(=O)c3cccc([N+](=O)[O-])c3)CC2)o1 | > 100 µM | > 100 µM (inactive) | > 100 µM
28 | CCOC(=O)[C@]12Cc3ccccc3[C@H]1N(C)C(=O)c1cc(OC)ccc12 | > 100 µM | > 100 µM (inactive) | 
29 | CC(C)CNC(=O)c1cccc(NC(=O)C(C)Oc2ccccc2)c1 (configuration not stated) | > 100 µM |  | > 100 µM
30 | O=C(O)c1ccc(-c2noc(-c3cccc(Cl)c3)n2)cc1 | > 100 µM | > 100 µM (inactive) | 
31 | COc1ccc(CNC(=O)CSCc2c(F)cccc2Cl)cc1 | > 100 µM | > 100 µM (inactive) | 
32 | Cc1ccc(CNS(=O)(=O)c2ccc3c(c2)NC(=O)CS3)cc1 | 8.08 µM | > 100 µM (inactive) | 
33 | CSc1nnnn1-c1ccc(Cl)cc1 | > 100 µM |  | > 100 µM
34 | COc1cc(C)ccc1OCc1cc(C(=O)N2CCC(c3ccc(F)cc3)C2)no1 (configuration not stated) | > 100 µM | > 100 µM (inactive) | 
35 | Cc1ccc(-c2nc3ccc(NS(=O)(=O)c4ccccc4)cc3[nH]2)o1 | 5.12 µM | > 100 µM (inactive) | 
36 | Cc1ccc(NC(=O)c2ccc(NCCCN3CCC(C)CC3)c([N+](=O)[O-])c2)cc1F | 11.1 µM | > 100 µM (inactive) | 
37 | COc1ccccc1OCC(=O)Nc1ccc(S(=O)(=O)N2CCCCCC2)cc1 | > 100 µM | > 100 µM (inactive) | 
38 | COc1ccccc1NC(=O)COC(=O)Cc1c[nH]c2ccccc12 | > 100 µM |  | 
39 | CCOc1ccc2oc(-c3ccccc3)c(C(=O)N(C)C)c2c1 | > 100 µM |  | 
40 | O=C(Nc1cccc(O)c1)c1cccc(S(=O)(=O)Nc2cccc(O)c2)c1 | > 100 µM |  | 
41 | O=c1[nH]n2c(-c3ccccc3)nc(O)c2c2ccccc12 | 36.6 µM | > 100 µM (inactive) | 
42 | N#Cc1ccsc1NC(=O)CSc1nnnn1-c1ccc(O)cc1 | > 100 µM | > 100 µM (inactive) | 
43 | CCc1cc2cc(OC)ccc2nc1SCC(=O)Nc1cc(OC)c(OC)cc1C(=O)O | > 100 µM |  | > 100 µM
44 | Cc1cccc(-n2cnc3cc([N+](=O)[O-])ccc32)c1 | > 100 µM |  | 

Row | SMILES | AC50 [1] | AC50 [2] | AC50 [3]
45 | CCN(C(=O)CSc1cc(C)c2ccc(OC)cc2n1)C1CCS(=O)(=O)C1 (configuration not stated) | > 100 µM |  | > 100 µM
46 | O=C(Nc1ccc(S(=O)(=O)N2CCOCC2)cc1)c1ccc([N+](=O)[O-])o1 | 50.9 µM | > 100 µM (inactive) | 
47 | COc1ccc(NC(=O)c2sccc2-n2cccc2)cc1 | > 100 µM | > 100 µM (inactive) | 
48 | O=C(Cc1ccc(NC(=O)C2CCCN(C(=O)CCc3ccccc3)C2)cc1)Nc1cccc(C(=O)N2CCCC2)c1 (configuration not stated) | > 100 µM | > 100 µM (inactive) | 
49 | C(=C/c1nccc2c1[nH]c1ccccc12)/c1ccc2c(c1)OCO2 | > 100 µM |  | 
50 | O=C(Nc1cccc(Oc2ccc3c(c2)C(=O)NC3=O)c1)c1cccs1 | > 100 µM | > 100 µM (inactive) | 
51 | CCN(CC)CCN(C(=O)C1CCCCC1)c1nc2cc3c(cc2s1)OCO3 | > 100 µM | > 100 µM (inactive) | 
52 | CC(OC(=O)COc1ccccc1)C(=O)NC1CCCC1 (configuration not stated) | > 100 µM |  | 
53 | COc1ccc(CCNc2nc(-c3ccncc3)cs2)cc1OC | > 100 µM | > 100 µM (inactive) | 
54 | S=C1SCN(Cc2cccnc2)CN1Cc1cccnc1 | > 100 µM |  | 
55 | Cn1cnc([N+](=O)[O-])c1Oc1ccccc1 | > 100 µM |  | 
56 | CC(=O)Nc1ccc2nc3ccccc3nc2c1 | > 100 µM | > 100 µM (inactive) | 
57 | COc1ccc(NC(=O)c2nc[nH]c2C(=O)N(C)Cc2ccccc2)cc1 | > 100 µM | > 100 µM (inactive) | 
58 | COc1ccc2c(c1)c1ncn(Cc3ccccn3)c(=O)c1n2C | > 100 µM |  | 
59 | Nc1ccc(C(=O)OCCc2ccccc2)cc1 | > 100 µM |  | 
60 | CCOc1cc(/C=C(\CC(=O)O)c2nc3ccccc3s2)ccc1OC | > 100 µM |  | 
61 | COc1cc2cc(C(=O)Nc3ccc4c(c3)OCCO4)[nH]c2cc1OC | > 100 µM |  | > 100 µM
62 | Cc1nc2ncnn2c(N2CCC(C(=O)NC3CCCC3)CC2)c1Cc1ccccc1 | > 100 µM |  | 
63 | O=C(Nc1ccc(-c2nnc3n2CCCCC3)cc1)c1cc2ccccc2o1 | > 100 µM |  | 
64 | O=C(CN1C(=O)c2ccccc2C1=O)Nc1cccc(S(=O)(=O)Nc2ccccc2Cl)c1 | > 100 µM | > 100 µM (inactive) | 
65 | c1ccc(CSCc2ccccc2)cc1 | > 100 µM |  | 
66 | CC(=O)Nc1nc(C)c(-c2csc(Nc3ccccn3)n2)s1 | > 100 µM | > 100 µM (inactive) | 

Row | SMILES | AC50 [1] | AC50 [2] | AC50 [3]
67 | Cc1nn(C)cc1NC(=O)C[C@@H]1CC[C@@H]2[C@@H](COc3ccc(NC(=O)C4CCC4)cc3C(=O)N2C)O1 | 3.9 µM | > 100 µM (inactive) | 
68 | COc1ccc2oc(C(=O)NCc3ccco3)c(C)c2c1 | > 100 µM | > 100 µM (inactive) | 
69 | O=C(COC(=O)C1CC2C=CC1C2)Nc1ccc([N+](=O)[O-])cc1 (configuration not stated) | > 100 µM |  | > 100 µM
70 | COC(C(=O)Nc1ccnn1C1CCN(Cc2ccc(Cl)s2)CC1)c1ccccc1 (configuration not stated) | > 100 µM |  | > 100 µM
71 | C[C@]12C(=O)N(c3ccc(F)cc3)C(=O)N1[C@@H]1c3ccccc3OC[C@@H]1[C@H]2c1ccccc1 | 5.36 µM |  | > 100 µM
72 | Cc1cc(Br)cn2c(Cc3cccc(Cl)c3)c(-c3ccco3)nc12 | > 100 µM |  | 
73 | Cc1cc(C)cc(NC(=O)c2cccc(NC(=O)c3ccco3)c2)c1 | > 100 µM | > 100 µM (inactive) | 
74 | CCc1cccc(NC(=O)CN(C)S(=O)(=O)c2cccc3cccnc23)c1 | > 100 µM |  | 
75 | O=C(C1Cc2ccccc2CN1C(=O)c1ccccc1)N1CCN(c2ccccc2)CC1 (configuration not stated) | > 100 µM |  | 
76 | COC(=O)c1ccccc1NC(=O)c1ccc2c(c1)CC(C)O2 (configuration not stated) | > 100 µM | > 100 µM (inactive) | 
77 | O=C(NCc1ccccc1Cl)c1ccc2c(c1)SC1=NS(=O)(=O)CCN12 | > 100 µM |  | 
78 | O=C(CSCc1cnn(-c2ccccc2)c1-n1cccc1)NCc1cccnc1 | > 100 µM |  | 
79 | Cn1ccc2cc(-c3ccc4ncnc(NCc5cccs5)c4c3)ccc21 | > 100 µM |  | 
80 | O=C(NCCC1=CCCCC1)c1ccc(Cl)c(S(=O)(=O)Nc2ccccc2)c1 | > 100 µM | > 100 µM (inactive) | 
81 | CCOc1ccc(S(=O)(=O)N(C)c2ccc(OCC(=O)NCc3cccnc3)cc2)cc1 | > 100 µM |  | 
82 | CC(NC(=O)c1ccncc1)c1ccc(Cl)cc1Cl (configuration not stated) | > 100 µM |  | 
83 | CCCC(=O)Nc1cccc(C(=O)Nc2ccccc2OCC)c1 | > 100 µM |  | 
84 | CCCN(Cc1ccco1)S(=O)(=O)c1ccc(OC)c(OC)c1 | > 100 µM |  | > 100 µM
85 | C#CC(C)(C)NC(=O)c1ccc(-c2ccccc2F)cc1 | > 100 µM |  | 
